Experimental data from PubChem BioAssay AID248 (DTP/NCI, 2004).
Inconclusive results and toxic doses are left out. No stated cut-off is given here; in the data, active means T/C of 150% or more; inactive means T/C below 125%.

System: L1210 leukemia ip in BDF1 mice, survival T/C
Test: NCI In Vivo Anticancer Drug Screen. Data for tumor model L1210 Leukemia (intraperitoneal) in B6D2F1 (BDF1) mice
Details: endpoint: mean survival time, higher = longer survival
Summary of the method: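 Mice bearing the transplanted tumor received compound or vehicle. Survival of the treated group was divided by that of the vehicle-treated control group to give the ratio.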

[1] = dose: 100.0 mg/kg/injection, schedule: Q01DX001 (ip), vehicle: saline
[2] = dose: 100.0 mg/kg/injection, schedule: Q04DX003 (ip), vehicle: saline with Tween-80
[3] = dose: 200.0 mg/kg/injection, schedule: Q04DX003 (ip), vehicle: saline with Tween-80
[4] = dose: 400.0 mg/kg/injection, schedule: Q04DX003 (ip), vehicle: saline with Tween-80
[5] = dose: 25.0 mg/kg/injection, schedule: Q01DX009 (ip), vehicle: Klucel (hydroxypropylcellulose) (HPC)
[6] = dose: 100.0 mg/kg/injection, schedule: Q04DX003 (ip), vehicle: Klucel (hydroxypropylcellulose) (HPC)
[7] = dose: 200.0 mg/kg/injection, schedule: Q04DX003 (ip), vehicle: Klucel (hydroxypropylcellulose) (HPC)
[8] = dose: 400.0 mg/kg/injection, schedule: Q04DX003 (ip), vehicle: Klucel (hydroxypropylcellulose) (HPC)
[9] = dose: 200.0 mg/kg/injection, schedule: Q01DX001 (ip), vehicle: saline
[10] = dose: 100.0 mg/kg/injection, schedule: Q01DX009 (ip), vehicle: Klucel (hydroxypropylcellulose) (HPC)
[11] = dose: 200.0 mg/kg/injection, schedule: Q01DX009 (ip), vehicle: Klucel (hydroxypropylcellulose) (HPC)

Measured: T/C

C=CCC(CC)C(=O)O (centres undefined)
inactive: dose: 100.0 mg/kg/injection, schedule: Q01DX009 (ip), vehicle: saline 104 % of control | dose: 100.0 mg/kg/injection, schedule: Q04DX003 (ip), vehicle: saline 100 % of control | dose: 200.0 mg/kg/injection, schedule: Q01DX009 (ip), vehicle: saline 96 % of control | dose: 200.0 mg/kg/injection, schedule: Q04DX003 (ip), vehicle: saline 97 % of control | dose: 400.0 mg/kg/injection, schedule: Q04DX003 (ip), vehicle: saline 97 % of control

c1ccc([P+](CC2CCCO2)(c2ccccc2)c2ccccc2)cc1 (centres undefined)
inactive: [1] 113 % of control

O=C(N/N=C\c1ccc(N(CCCl)CCCl)cc1)c1ccccn1
inactive: dose: 50.0 mg/kg/injection, schedule: Q01DX001 (ip), vehicle: carboxymethylcellulose (CMC) 108 % of control | dose: 100.0 mg/kg/injection, schedule: Q01DX001 (ip), vehicle: carboxymethylcellulose (CMC) 108 % of control | dose: 200.0 mg/kg/injection, schedule: Q01DX001 (ip), vehicle: carboxymethylcellulose (CMC) 103 % of control | dose: 400.0 mg/kg/injection, schedule: Q01DX001 (ip), vehicle: carboxymethylcellulose (CMC) 100 % of control

c1ccc(Nc2ccc3ccccc3c2)cc1
inactive: dose: 100.0 mg/kg/injection, schedule: Q01DX009 (ip), vehicle: saline with Tween-80 97 % of control | [2] 92 % of control | dose: 200.0 mg/kg/injection, schedule: Q01DX009 (ip), vehicle: saline with Tween-80 89 % of control | [3] 98 % of control | dose: 400.0 mg/kg/injection, schedule: Q01DX009 (ip), vehicle: saline with Tween-80 92 % of control | [4] 98 % of control

CCCC(C)(Cl)C(=O)Nc1cccc(OC(=O)NC)c1 (centres undefined)
inactive: [2] 92 % of control | [3] 90 % of control | [4] 90 % of control

CN(CCN1CCCCC1)C(=O)C(O)(c1ccccc1)C1CCCCC1 (centres undefined)
inactive: dose: 75.0 mg/kg/injection, schedule: Q01DX001 (ip), vehicle: saline 96 % of control | dose: 150.0 mg/kg/injection, schedule: Q01DX001 (ip), vehicle: saline 97 % of control

CCCCCCCCCCCCCCCCCCSC(C)(C)SCCCCCCCCCCCCCCCCCC
inactive: dose: 100.0 mg/kg/injection, schedule: Q04DX002 (ip), vehicle: saline with Tween-80 106 % of control | dose: 200.0 mg/kg/injection, schedule: Q04DX002 (ip), vehicle: saline with Tween-80 89 % of control | dose: 400.0 mg/kg/injection, schedule: Q04DX002 (ip), vehicle: saline with Tween-80 92 % of control

NNC(=O)c1ccc(Cl)cc1Cl
inactive: dose: 6.25 mg/kg/injection, schedule: Q04DX003 (ip), vehicle: saline sonified 97 % of control | dose: 12.5 mg/kg/injection, schedule: Q01DX009 (ip), vehicle: Klucel (hydroxypropylcellulose) (HPC) 96 % of control | dose: 12.5 mg/kg/injection, schedule: Q04DX003 (ip), vehicle: saline sonified 101 % of control | [5] 106 % of control | dose: 25.0 mg/kg/injection, schedule: Q04DX003 (ip), vehicle: saline sonified 95 % of control

O=C(OC(=O)c1cccc(-c2ccccc2)c1)c1cccc(-c2ccccc2)c1
inactive: [6] 104 % of control | [7] 101 % of control | [8] 96 % of control

NC(=O)c1nc(C(F)(F)F)[nH]c1C(N)=O
inactive: dose: 50.0 mg/kg/injection, schedule: Q01DX009 (ip), vehicle: water 96 % of control | dose: 100.0 mg/kg/injection, schedule: Q01DX009 (ip), vehicle: water 102 % of control | dose: 100.0 mg/kg/injection, schedule: Q04DX003 (ip), vehicle: water 100 % of control | dose: 200.0 mg/kg/injection, schedule: Q01DX009 (ip), vehicle: water 109 % of control | dose: 200.0 mg/kg/injection, schedule: Q04DX003 (ip), vehicle: water 100 % of control | dose: 300.0 mg/kg/injection, schedule: Q01DX009 (ip), vehicle: water 91 % of control

COC1OC(CO)C(O)C1OS(C)(=O)=O (centres undefined)
inactive: [1] 101 % of control | [9] 103 % of control | dose: 400.0 mg/kg/injection, schedule: Q01DX001 (ip), vehicle: saline 101 % of control

ClCCOc1ccccc1
inactive: [1] 95 % of control | [9] 101 % of control

Cc1ccc2c(C)c(C)c(=O)n(C)c2c1
inactive: dose: 100.0 mg/kg/injection, schedule: Q01DX001 (ip), vehicle: other 104 % of control | dose: 200.0 mg/kg/injection, schedule: Q01DX001 (ip), vehicle: other 98 % of control | dose: 400.0 mg/kg/injection, schedule: Q01DX001 (ip), vehicle: other 95 % of control

CC(=O)c1cccc(NC(=O)Oc2ccc(Cl)cc2Cl)c1
inactive: [10] 101 % of control | [11] 110 % of control

CC1=CC(=O)CC(C)(C)C1(O)/C=C/C(C)=C/C(=O)O (centres undefined)
inactive: dose: 12.5 mg/kg/injection, schedule: Q04DX003 (ip), vehicle: Klucel (hydroxypropylcellulose) (HPC) 93 % of control | [5] 87 % of control | dose: 25.0 mg/kg/injection, schedule: Q04DX003 (ip), vehicle: Klucel (hydroxypropylcellulose) (HPC) 96 % of control | dose: 50.0 mg/kg/injection, schedule: Q01DX009 (ip), vehicle: Klucel (hydroxypropylcellulose) (HPC) 88 % of control | dose: 50.0 mg/kg/injection, schedule: Q04DX003 (ip), vehicle: Klucel (hydroxypropylcellulose) (HPC) 88 % of control | [10] 93 % of control | [6] 96 % of control | [11] 92 % of control | [7] 98 % of control | dose: 400.0 mg/kg/injection, schedule: Q01DX009 (ip), vehicle: Klucel (hydroxypropylcellulose) (HPC) 95 % of control | [8] 102 % of control

CCOc1ncc([N+](=O)[O-])cn1
inactive: [6] 101 % of control | [7] 114 % of control | [8] 103 % of control

Cc1ccc(NC(C(=O)O)c2ccccc2)cc1 (centres undefined)
inactive: dose: 100.0 mg/kg/injection, schedule: Q04DX002 (ip), vehicle: Klucel (hydroxypropylcellulose) (HPC) 104 % of control | dose: 200.0 mg/kg/injection, schedule: Q04DX002 (ip), vehicle: Klucel (hydroxypropylcellulose) (HPC) 111 % of control
